Laboratory results published in patent publication US20020040139A1, “INTRANASAL FORMULATIONS FOR TREATING SEXUAL DISORDERS” (priority 1998, published 2002).
Counter-ions that a name gives are not always drawn.

Columns and labels:
[1] = Plasma levels in dogs after intranasal versus oral dosing; format: in vivo
Experimental: The effectiveness of the intranasal formulations of the present invention were evaluated in dogs. Four fasted dogs were lightly anaesthetised, each received 5 mg of the cGMP-PDE5 inhibitor in both nostrils. The drug was administered both as a powder and as a solution. Plasma levels of the active agent were measured and compared with plasma levels obtained when the dogs were previously orally dosed with the agent.
Thus a solution dose of 0.7 mg/kg of sildenafil mesylate administered by the intranasal route to four dogs gave a mean peak blood plasma levels of 407 ng/ml after a period of 5 minutes.

[2] = Plasma levels in human volunteers after intranasal administration; format: in vivo; conditions: man
[3] = Aqueous solubility of sildenafil mesylate; format: physicochemical; conditions: no solubility enhancing agent
Experimental: Preferred as solubility enhancing agents are caffeine (preferably at a concentration of from 1.0 to 2.5% weight/vol); nicotinamide (preferably 3.0 to 20.0% weight/vol); vanillin (preferably 0.5 to 2.5% weight/vol); and benzyl alcohol (preferably 0.5 to 2.5% weight/vol). A combination of nicotinamide and vanillin is also preferred. By using such solubility enhancing agents, it is possible to increase the solubility of sildenafil mesylate in water from approximately 60 mg/ml to in excess of 100 mg/ml. This allows a more concentrated solution to be administered facilitating a rapid onset of action and reducing irritancy. One particular and preferred formulation comprises sildenafil mesylate 100 mg/ml and caffeine 15 mg/ml in a buffered aqueous solution. The pH of the solution is preferably adjusted to pH 3-5, preferably to pH 4.2 by the addition of a base e.g. sodium hydroxide.

[4] = four dogs, intranasal route, solution dose 0.7 mg/kg

| mean peak blood plasma level ([1]; dog, in vivo, po, 1.4 mg/kg) [ng/mL] | time of mean peak blood plasma level ([1]; dog, in vivo, po, 1.4 mg/kg) [min] | Compound | blood plasma levels after intranasal versus oral administration ([1]; dogs, intranasal powder and solution, 5 mg in both nostrils, compared with oral dosing) | mean peak blood plasma level [1, 4] [ng/mL] | time of mean peak blood plasma level [1, 4] [min] | blood plasma levels of sildenafil versus oral dosing [2] | time of peak blood plasma levels after administration [2] [min] | solubility in water [3] |
| --- | --- | --- | --- | --- | --- | --- | --- | --- |
| – | – | 5-[2-ethoxy-5-(4-methylpiperazin-1-ylsulphonyl)phenyl]-1,6-dihydro-1-methyl-3-propylpyrazolo[4,3-d]pyrimidin-7-one)methanesulphonate salt [sildenafil mesylate] | particularly effective | 407 | 5 | comparable with oral dosing | 5 to 15 | approximately 60 mg/ml |
| 204 | 136 | CCCc1nn(C)c2c(=O)[nH]c(-c3cc(S(=O)(=O)N4CCN(C)CC4)ccc3OCC)nc12 [sildenafil citrate, reference compound] | – | – | – | – | – | – |
